{"source": "ChEMBL document CHEMBL3390848", "about": "“Affinity selection and sequence-activity relationships of HIV-1 membrane fusion inhibitors directed at the drug-resistant variants” (Medchemcomm, 2010)", "key": {"[1]": {"tested_on": "Human immunodeficiency virus 1", "test": "Thermal stability of HIV1 envelope glycoprotein gp41 His-tagged N-terminal heptad repeat N36-drug complex assessed as thermal unfolding transition state by measuring molar ellipticity at 4 to 90 degC by circular dichroic spectra analysis"}, "[2]": {"tested_on": "Human immunodeficiency virus 1", "test": "Antiviral activity against HIV1 NL4-3 harboring gp41 D36G mutant infected in human HeLa cells expressing CD4-LTR-beta-gal assessed as inhibition of viral replication after 48 hrs by MAGI assay", "format": "functional, organism-based"}, "[3]": {"tested_on": "Human immunodeficiency virus 1", "test": "Binding affinity to HIV1 His-tagged N-terminal heptad repeat of envelope glycoprotein gp41 assessed as recovery of N36-drug complex after 2 hrs by LC-MS analysis", "set-up": "concentration or dose not given beside the values"}, "[4]": {"tested_on": "Human immunodeficiency virus 1", "test": "Thermal stability of HIV1 envelope glycoprotein gp41 His-tagged N-terminal heptad repeat N54-drug complex assessed as thermal unfolding transition state by measuring molar ellipticity at 4 to 90 degC by circular dichroic spectra analysis"}, "[5]": {"tested_on": "Human immunodeficiency virus 1", "test": "Binding affinity to HIV1 His-tagged N-terminal heptad repeat of envelope glycoprotein gp41 assessed as recovery of N54-drug complex after 2 hrs by LC-MS analysis", "set-up": "concentration or dose not given beside the values"}}, "note": "Residues, ends and D or L forms follow the SMILES beside them.", "data": [{"molecule": "CC[C@H](C)[C@H](NC(=O)[C@H](CC(C)C)NC(=O)[C@H](CCC(=O)O)NC(=O)[C@H](CCC(=O)O)NC(=O)[C@@H](NC(=O)[C@H](CCCCN)NC(=O)[C@H](CCCCN)NC(=O)[C@@H](NC(=O)[C@H](Cc1ccc(O)cc1)NC(=O)[C@H](CCC(=O)O)NC(=O)[C@H](CCC(=O)O)NC(=O)[C@@H](NC(=O)[C@H](CCCCN)NC(=O)[C@H](CCCCN)NC(=O)[C@H](CC(=O)O)NC(=O)[C@H](Cc1c[nH]c2ccccc12)NC(=O)[C@H](CCC(=O)O)NC(=O)[C@H](CCC(=O)O)NC(=O)[C@H](Cc1c[nH]c2ccccc12)NC(C)=O)[C@@H](C)CC)[C@@H](C)O)[C@@H](C)CC)C(=O)N[C@@H](CCCCN)C(=O)N[C@@H](CCCCN)C(=O)N[C@@H](CO)C(=O)N[C@@H](CCC(=O)O)C(=O)N[C@@H](CCC(=O)O)C(=O)N1CCC[C@H]1C(=O)N[C@@H](CCC(N)=O)C(=O)N[C@@H](CCCCN)C(=O)N[C@@H](CCCCN)C(=O)N[C@@H](CC(N)=O)C(=O)N[C@@H](CCC(=O)O)C(=O)N[C@@H](CCC(=O)O)C(=O)N[C@@H](CCC(=O)O)C(=O)N[C@@H](CC(C)C)C(=O)N[C@@H](CCCCN)C(=O)N[C@@H](CCCCN)C(N)=O", "note": "(Ac-WEEWDKKIEEYTKKIEELIKKSEEPQKKNEEELKK-NH2)", "values": [{"measurement": "Tm", "setting": "[1]", "value": 60.2, "unit": "°C"}, {"measurement": "EC50", "setting": "[2]", "value": 58, "unit": "nM"}, {"measurement": "Activity", "setting": "[3]", "value": 0, "unit": "%"}]}, {"molecule": "CC[C@H](C)[C@H](NC(=O)[C@H](CC(C)C)NC(=O)[C@H](CCC(=O)O)NC(=O)[C@H](CCC(=O)O)NC(=O)[C@@H](NC(=O)[C@H](CCCCN)NC(=O)[C@H](CCCCN)NC(=O)[C@@H](NC(=O)[C@H](Cc1ccc(O)cc1)NC(=O)[C@H](CCC(=O)O)NC(=O)[C@H](CCC(=O)O)NC(=O)[C@@H](NC(=O)[C@H](CCCCN)NC(=O)[C@H](CCCCN)NC(=O)[C@H](CC(=O)O)NC(=O)[C@H](Cc1c[nH]c2ccccc12)NC(=O)[C@H](CCC(=O)O)NC(=O)[C@H](CCC(=O)O)NC(=O)[C@H](Cc1c[nH]c2ccccc12)NC(C)=O)[C@@H](C)CC)[C@@H](C)O)[C@@H](C)CC)C(=O)N[C@@H](CCCCN)C(=O)N[C@@H](CCCCN)C(=O)N[C@@H](CO)C(=O)N[C@@H](CCC(=O)O)C(=O)N[C@@H](CCC(=O)O)C(=O)N[C@H](C(=O)N[C@@H](CCC(N)=O)C(=O)N[C@@H](CCCCN)C(=O)N[C@@H](CCCCN)C(=O)N[C@@H](CC(N)=O)C(=O)N[C@@H](CCC(=O)O)C(=O)N[C@@H](CCC(=O)O)C(=O)N[C@@H](CCC(=O)O)C(=O)N[C@@H](CC(C)C)C(=O)N[C@@H](CCCCN)C(=O)N[C@@H](CCCCN)C(N)=O)C(C)C", "note": "(Ac-WEEWDKKIEEYTKKIEELIKKSEEVQKKNEEELKK-NH2)", "values": [{"measurement": "Tm", "setting": "[1]", "value": 77.7, "unit": "°C"}, {"measurement": "EC50", "setting": "[2]", "value": 2.2, "unit": "nM"}, {"measurement": "Activity", "setting": "[3]", "value": 6.2, "unit": "%"}]}, {"molecule": "CC[C@H](C)[C@H](NC(=O)[C@H](CC(C)C)NC(=O)[C@H](CCC(=O)O)NC(=O)[C@H](CCC(=O)O)NC(=O)[C@@H](NC(=O)[C@H](CC(C)C)NC(=O)[C@H](CO)NC(=O)[C@@H](NC(=O)[C@H](Cc1ccc(O)cc1)NC(C)=O)[C@@H](C)O)[C@@H](C)CC)C(=O)N[C@@H](CCCCN)C(=O)N[C@@H](CCCCN)C(=O)N[C@@H](CCSC)C(=O)N[C@@H](CCC(=O)O)C(=O)N[C@@H](CCC(=O)O)C(=O)N[C@@H](CCC(N)=O)C(=O)N[C@@H](CCC(N)=O)C(=O)N[C@@H](CCCCN)C(=O)N[C@@H](CCCCN)C(=O)N[C@@H](CC(N)=O)C(=O)N[C@@H](CCC(=O)O)C(=O)N[C@@H](CCC(=O)O)C(=O)N[C@@H](CCC(=O)O)C(=O)N[C@@H](CC(C)C)C(=O)N[C@@H](CCCCN)C(=O)N[C@@H](CCCCN)C(=O)N[C@@H](CC(C)C)C(=O)N[C@@H](CCC(=O)O)C(=O)N[C@@H](CCC(=O)O)C(=O)N[C@@H](Cc1c[nH]c2ccccc12)C(=O)N[C@@H](C)C(=O)N[C@@H](CCCCN)C(=O)N[C@@H](CCCCN)C(=O)N[C@@H](Cc1c[nH]c2ccccc12)C(=O)N[C@@H](CC(N)=O)C(=O)N[C@@H](Cc1c[nH]c2ccccc12)C(=O)N[C@@H](Cc1ccccc1)C(N)=O", "note": "(Ac-YTSLIEELIKKMEEQQKKNEEELKKLEEWAKKWNWF-NH2)", "values": [{"measurement": "EC50", "setting": "[2]", "value": 0.2, "unit": "nM"}, {"measurement": "Tm", "setting": "[4]", "value": 79, "unit": "°C"}, {"measurement": "Activity", "setting": "[5]", "value": 9.9, "unit": "%"}]}, {"molecule": "CC[C@H](C)[C@H](NC(=O)[C@H](CC(C)C)NC(=O)[C@H](CCC(=O)O)NC(=O)[C@H](CCC(=O)O)NC(=O)[C@@H](NC(=O)[C@H](CC(C)C)NC(=O)[C@H](CO)NC(=O)[C@@H](NC(=O)[C@H](Cc1ccc(O)cc1)NC(C)=O)[C@@H](C)O)[C@@H](C)CC)C(=O)N[C@@H](CCCCN)C(=O)N[C@@H](CCCCN)C(=O)N[C@@H](Cc1cnc[nH]1)C(=O)N[C@@H](CCC(=O)O)C(=O)N[C@@H](CCC(=O)O)C(=O)N[C@@H](CCC(N)=O)C(=O)N[C@@H](CCC(N)=O)C(=O)N[C@@H](CCCCN)C(=O)N[C@@H](CCCCN)C(=O)N[C@@H](CC(N)=O)C(=O)N[C@@H](CCC(=O)O)C(=O)N[C@@H](CCC(=O)O)C(=O)N[C@@H](CCC(=O)O)C(=O)N[C@@H](CC(C)C)C(=O)N[C@@H](CCCCN)C(=O)N[C@@H](CCCCN)C(=O)N[C@@H](CC(C)C)C(=O)N[C@@H](CCC(=O)O)C(=O)N[C@@H](CCC(=O)O)C(=O)N[C@@H](Cc1c[nH]c2ccccc12)C(=O)N[C@@H](C)C(=O)N[C@@H](CCCCN)C(=O)N[C@@H](CCCCN)C(=O)N[C@@H](Cc1c[nH]c2ccccc12)C(=O)N[C@@H](CC(N)=O)C(=O)N[C@@H](Cc1c[nH]c2ccccc12)C(=O)N[C@@H](Cc1ccccc1)C(N)=O", "note": "(Ac-YTSLIEELIKKHEEQQKKNEEELKKLEEWAKKWNWF-NH2)", "values": [{"measurement": "EC50", "setting": "[2]", "value": 35, "unit": "nM"}, {"measurement": "Tm", "setting": "[4]", "value": 58.5, "unit": "°C"}, {"measurement": "Activity", "setting": "[5]", "value": 3.2, "unit": "%"}]}, {"molecule": "CC[C@H](C)[C@H](NC(=O)[C@H](CC(C)C)NC(=O)[C@H](CCC(=O)O)NC(=O)[C@H](CCC(=O)O)NC(=O)[C@@H](NC(=O)[C@H](CC(C)C)NC(=O)[C@H](CO)NC(=O)[C@@H](NC(=O)[C@H](Cc1ccc(O)cc1)NC(C)=O)[C@@H](C)O)[C@@H](C)CC)C(=O)N[C@@H](CCCCN)C(=O)N[C@@H](CCCCN)C(=O)N[C@@H](CC(=O)O)C(=O)N[C@@H](CCC(=O)O)C(=O)N[C@@H](CCC(=O)O)C(=O)N[C@@H](CCC(N)=O)C(=O)N[C@@H](CCC(N)=O)C(=O)N[C@@H](CCCCN)C(=O)N[C@@H](CCCCN)C(=O)N[C@@H](CC(N)=O)C(=O)N[C@@H](CCC(=O)O)C(=O)N[C@@H](CCC(=O)O)C(=O)N[C@@H](CCC(=O)O)C(=O)N[C@@H](CC(C)C)C(=O)N[C@@H](CCCCN)C(=O)N[C@@H](CCCCN)C(=O)N[C@@H](CC(C)C)C(=O)N[C@@H](CCC(=O)O)C(=O)N[C@@H](CCC(=O)O)C(=O)N[C@@H](Cc1c[nH]c2ccccc12)C(=O)N[C@@H](C)C(=O)N[C@@H](CCCCN)C(=O)N[C@@H](CCCCN)C(=O)N[C@@H](Cc1c[nH]c2ccccc12)C(=O)N[C@@H](CC(N)=O)C(=O)N[C@@H](Cc1c[nH]c2ccccc12)C(=O)N[C@@H](Cc1ccccc1)C(N)=O", "note": "(Ac-YTSLIEELIKKDEEQQKKNEEELKKLEEWAKKWNWF-NH2)", "values": [{"measurement": "EC50", "setting": "[2]", "value": 330, "unit": "nM"}, {"measurement": "Tm", "setting": "[4]", "value": 56.5, "unit": "°C"}, {"measurement": "Activity", "setting": "[5]", "value": 1.5, "unit": "%"}]}]}
